Laboratory results: article PMC3429506, “Screening for Novel LRRK2 Inhibitors Using a High-Throughput TR-FRET Cellular Assay for LRRK2 Ser935 Phosphorylation” (PLoS ONE, 2012)
Read-outs that look alike come from different tables or passages of the source.

Experiments:
LRRK2 G2019S [1] = biological target: T1, LRRK2 G2019S (Homo sapiens, UniProt Q5S007, G2019S); assay: TR-FRET cellular assay for LRRK2 Ser935 phosphorylation, SH-SY5Y cells, BacMam LRRK2-GFP G2019S (incl. Tocriscreen Mini library screen and follow-up); assay type: cell-based; design: This high-throughput assay utilizes cells expressing full-length human LRRK2 with a C-terminal GFP tag (LRRK2-GFP); host or cells: SH-SY5Y cells transduced with BacMam; settings: SH-SY5Y G2019S; for %Inhibition Initial screen: Tocriscreen Mini library screen, relative to LRRK2-IN-1 control; for %Inhibition Initial screen / dephosphorylation of Ser935 in library screen: 20 µM; for Cellular TR-FRET Assay Max % Inhibition / IC50: dose-response follow-up; for Cellular TR-FRET Assay Max % Inhibition: 90 min; for IC50: three independent experiments, read-out: Cellular TR-FRET Assay IC50 +/-SD; for dephosphorylation of Ser935 in library screen: Tocriscreen library
T1 sequence (Q5S007 whole entry G2019S): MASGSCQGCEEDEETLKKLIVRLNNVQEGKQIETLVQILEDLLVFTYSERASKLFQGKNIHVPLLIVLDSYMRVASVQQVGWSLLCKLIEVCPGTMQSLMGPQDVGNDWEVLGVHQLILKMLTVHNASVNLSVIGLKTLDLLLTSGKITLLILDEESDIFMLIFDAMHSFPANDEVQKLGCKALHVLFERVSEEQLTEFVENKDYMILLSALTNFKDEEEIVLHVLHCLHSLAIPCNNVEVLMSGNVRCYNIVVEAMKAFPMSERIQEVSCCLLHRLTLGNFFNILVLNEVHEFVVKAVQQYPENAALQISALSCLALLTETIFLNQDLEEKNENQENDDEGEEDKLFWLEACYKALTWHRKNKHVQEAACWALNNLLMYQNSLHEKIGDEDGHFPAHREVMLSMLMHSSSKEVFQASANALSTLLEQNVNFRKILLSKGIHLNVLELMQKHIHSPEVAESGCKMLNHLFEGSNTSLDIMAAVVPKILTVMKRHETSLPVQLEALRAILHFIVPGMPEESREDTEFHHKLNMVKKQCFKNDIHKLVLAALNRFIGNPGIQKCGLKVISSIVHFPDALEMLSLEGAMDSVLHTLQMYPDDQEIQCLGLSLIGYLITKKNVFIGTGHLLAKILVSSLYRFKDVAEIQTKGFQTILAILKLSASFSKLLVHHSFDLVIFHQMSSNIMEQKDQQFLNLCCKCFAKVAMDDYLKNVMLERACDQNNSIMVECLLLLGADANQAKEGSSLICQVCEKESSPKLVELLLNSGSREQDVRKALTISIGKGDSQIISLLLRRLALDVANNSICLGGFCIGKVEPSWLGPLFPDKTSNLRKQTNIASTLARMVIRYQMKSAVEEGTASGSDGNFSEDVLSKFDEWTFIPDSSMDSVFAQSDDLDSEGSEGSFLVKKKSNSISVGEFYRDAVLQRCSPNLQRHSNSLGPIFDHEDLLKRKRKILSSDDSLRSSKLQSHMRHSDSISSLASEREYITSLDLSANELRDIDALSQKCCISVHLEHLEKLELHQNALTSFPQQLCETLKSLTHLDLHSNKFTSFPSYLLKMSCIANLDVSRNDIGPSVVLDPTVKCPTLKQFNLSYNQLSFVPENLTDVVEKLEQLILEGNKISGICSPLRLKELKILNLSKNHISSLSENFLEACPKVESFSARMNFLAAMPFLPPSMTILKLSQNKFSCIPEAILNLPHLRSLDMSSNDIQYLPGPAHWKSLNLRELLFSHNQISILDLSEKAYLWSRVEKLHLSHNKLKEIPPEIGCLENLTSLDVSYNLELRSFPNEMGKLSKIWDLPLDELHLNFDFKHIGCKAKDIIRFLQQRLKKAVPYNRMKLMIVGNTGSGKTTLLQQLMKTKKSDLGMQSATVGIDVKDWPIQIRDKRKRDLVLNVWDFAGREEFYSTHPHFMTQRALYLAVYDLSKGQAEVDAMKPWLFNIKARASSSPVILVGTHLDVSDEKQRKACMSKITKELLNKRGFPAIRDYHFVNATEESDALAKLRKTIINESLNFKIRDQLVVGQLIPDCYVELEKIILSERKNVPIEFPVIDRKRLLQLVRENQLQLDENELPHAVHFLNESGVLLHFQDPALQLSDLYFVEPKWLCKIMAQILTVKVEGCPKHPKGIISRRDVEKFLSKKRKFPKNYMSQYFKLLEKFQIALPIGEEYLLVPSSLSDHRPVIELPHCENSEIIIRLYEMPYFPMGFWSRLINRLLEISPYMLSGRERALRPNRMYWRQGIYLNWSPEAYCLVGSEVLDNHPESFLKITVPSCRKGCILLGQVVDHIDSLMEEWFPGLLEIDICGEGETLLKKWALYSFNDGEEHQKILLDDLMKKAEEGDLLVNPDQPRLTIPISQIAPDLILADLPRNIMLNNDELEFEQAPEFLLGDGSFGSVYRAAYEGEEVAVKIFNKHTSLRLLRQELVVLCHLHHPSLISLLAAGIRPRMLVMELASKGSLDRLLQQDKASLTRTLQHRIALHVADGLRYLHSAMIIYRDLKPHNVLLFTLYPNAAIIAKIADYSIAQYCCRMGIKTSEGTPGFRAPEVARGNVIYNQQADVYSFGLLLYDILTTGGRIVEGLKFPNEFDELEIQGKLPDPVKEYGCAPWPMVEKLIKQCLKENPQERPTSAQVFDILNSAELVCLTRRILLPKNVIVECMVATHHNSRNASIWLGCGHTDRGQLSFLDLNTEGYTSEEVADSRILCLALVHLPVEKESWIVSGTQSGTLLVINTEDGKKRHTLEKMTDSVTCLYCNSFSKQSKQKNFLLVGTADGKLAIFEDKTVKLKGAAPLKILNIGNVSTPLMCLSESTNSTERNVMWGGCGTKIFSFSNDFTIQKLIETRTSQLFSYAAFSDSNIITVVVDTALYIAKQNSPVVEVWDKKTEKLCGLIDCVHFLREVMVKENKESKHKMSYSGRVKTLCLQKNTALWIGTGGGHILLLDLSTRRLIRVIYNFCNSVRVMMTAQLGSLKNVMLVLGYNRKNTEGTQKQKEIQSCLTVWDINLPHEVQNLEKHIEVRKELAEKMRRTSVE
Method: U-2 OS cells are maintained in growth medium (McCoy’s 5A supplemented with 10% dialyzed FBS (dFBS), 10 mM HEPES, 0.1 mM NEAA, 1 mM Sodium Pyruvate, and 100 U/mL Penicillin/100 µg/mL Streptomycin). HEK293T cells are maintained in DMEM with 10% dFBS, 10 mM HEPES, 0.1 mM NEAA and 100 U/mL Penicillin/100 µg/mL Streptomycin. SH-SY5Y cells are maintained in DMEM/F-12 medium supplemented with 10% dFBS and 100 U/mL Penicillin/100 µg/mL Streptomycin. […] GIBCO® human neural stem cells (hNSCs) were propagated as an adherent culture in StemPro® NSC SFM according to the manufacturer’s recommended protocol (Life Technologies). For BacMam transduction of U-2 OS and HEK293T, cells were harvested, mixed with various amounts of BacMam LRRK2-GFP reagent (v/v) and plated onto 6-well plates. […] Cells were assayed in 384-well format (∼20,000 cells/well) 48 hours post-transduction as above.
Transduced cells in the 384-well assay plate were incubated with indicated inhibitors (5X, 5 µL/well) for 60 to 90 minutes. During this time, 6 X lysis buffer (Life Technologies) was supplemented with 30 nM Tb-labeled anti-LRRK2 pSer935 antibody and both protease and phosphatase inhibitor cocktails (Sigma). The complete 6 X lysis buffer was added to each well (5 µL/well) and the plates were incubated at room temperature in the dark for 2 hours. […] A sigmoidal dose-response equation with varying slope was used to fit the data and generate IC50 values. Z′-factor values were calculated as: Z′-factor = 1 - [(3 × stdevno virus +3 × stdevmaxvirus)/(avgmaxvirus – avgno-virus)]. The IC50 values reported in Table 1 are the averaged numbers from three independent experiments.
40 nL of 10 mM Tocris library compounds in DMSO were dispensed into each well of the assay plate by the ECHO system. Equal volumes of DMSO were dispensed into the control wells. Cells were incubated with compounds for 90 to 120 min prior to cell lysis and detection as described above. The percent inhibition is calculated as: [(average emission ratios of DMSO control wells – average emission ratios of compound wells)/(average emission ratios of DMSO control wells – average emission ratios of LRRK2-IN-1 treated wells)] * 100. For the dose-response follow-up studies, fresh compound DMSO stock solutions were prepared from powder. […] Z′-factor value was calculated as: Z′-factor = 1 - [(3 × stdevLRRK2-IN-1+3 × stdevDMSO)/(avgDMSO – avgLRRK2-IN-1)]. The IC50 values reported in Table 2 are the averaged numbers from three independent experiments for both cellular and biochemical TR-FRET assays and one representative result of two independent experiments for the cytotoxicity assay.

[2] = test system: SH-SY5Y cells expressing LRRK2-GFP G2019S
LRRK2 A2016T/G2019S = biological target: T2, LRRK2 A2016T/G2019S (Homo sapiens, UniProt Q5S007, A2016T/G2019S); assay: Immunoprecipitation/Western analysis of LRRK2 phosphorylation in T-REx HEK293 cells expressing inhibitor desensitizing mutant; assay type: cell-based; settings: for effect of desensitizing mutation A2016T/G2019S on compound-induced dephosphorylation (IP-Western): 20 µM, Figure 6 IRM
T2 construct: expressed in transfected cells
T2 sequence (Q5S007 whole entry A2016T/G2019S): as the sequence (Q5S007 whole entry G2019S) above, with A2016T counted along it
Method: (§1) Immunoblot analysis: BacMam LRRK2-GFP transduced U-2 OS or SH-SY5Y cells (10^7 cells) were left untreated or treated with 3 µM LRRK2-IN-I for 90 min. For lysate preparation, the cells were washed once with ice-cold PBS and lysed by addition of ice-cold lysis buffer (20 mM Tris-HCl, pH 7.4, 1% NP-40, 5 mM EDTA, 5 mM NaF, 150 mM NaCl, and 1∶100 of protease and phosphatase inhibitor cocktails). The lysate was cleared of debris by centrifugation. Equal amount of total protein was loaded onto each lane for SDS-PAGE (3–8% Tris Acetate). The proteins were transferred onto nitrocellulose membrane using the iBLOT® dry blotting system (Life Technologies) according to manufacturer’s protocol. The membranes were blocked and incubated with a primary antibody against LRRK2 (Cell Signaling Technologies), followed by incubation with alkaline phosphatase-conjugated secondary antibody (WesternBreeze® chromogenic Kit, Life Technologies). The blot was developed by using the chromogenic BCIP/NBT substrate (WesternBreeze® chromogenic Kit, Life Technologies). […] Two days post induction, cells were treated for 90 minutes in the presence of 20 µM of compound or DMSO vehicle control. Cells were rapidly lysed in ice cold lysis buffer 50 mM Tris/HCl, pH 7.5, 1 mM EGTA, 1 mM EDTA, […] 1 mM sodium orthovanadate, 10 mM sodium beta-glycerolphosphate, 50 mM NaF, 5 mM sodium pyrophosphate, 0.27 M sucrose, 1 mM benzamidine and 2 mM phenylmethanesulphonylfluoride (PMSF) and one tablet each complete protease inhibitor and PhosSTOP phosphatase inhibitor (Roche) and was supplemented with 1% (v/v) Triton X-100. GFP-LRRK2 was immunoprecipitated with GFP nanotrap beads (ChromoTek). Immunecomplexes were washed twice with lysis buffer supplemented with 300 mM NaCl and once with Buffer A (50 mM Tris/HCl, pH 7.5, 50 mM NaCl, 0.1 mM EGTA and 0.1% (v/v) 2-mercaptoethanol, and 0.27 M sucrose).

GFP-LRRK2 G2019S = biological target: T3, GFP-LRRK2 G2019S (Homo sapiens, UniProt Q5S007, G2019S); assay: Immunoprecipitation/Western analysis of LRRK2 phosphorylation at Ser910, Ser935, Ser955, Ser973 in HEK293 T-REx GFP-LRRK2 G2019S cells; assay type: cell-based; settings: for effect on phosphorylation of Ser910, Ser935, Ser955 and Ser973 (IP-Western): 20 µM, 90 min, HEK293 GFP-LRRK2 G2019S, Figure 6
T3 construct: expressed in transfected cells
T3 sequence (Q5S007 whole entry G2019S): as the sequence (Q5S007 whole entry G2019S) above
Method: as §1

LRRK2 G2019S [3] = biological target: T1, LRRK2 G2019S; assay: In vitro biochemical LRRK2 TR-FRET activity assay; settings: for IC50: LRRK2 G2019S, ATP 134 µM (Km,app), LRRKtide substrate, three independent experiments, read-out: Biochemical LRRK2 assay IC50 +/- SD; for effect on LRRK2 activity in vitro: result in words
Method: The Biochemical LRRK2 TR-FRET activity assay was performed according to the manufacture recommended assay protocol (Life Technologies). […] After incubation at room temperature for 1 hour, the kinase reactions were stopped by addition of 10 µL of 20 mM EDTA and 4 nM Tb-anti-pERM (pLRRKtide) antibody in TR-FRET dilution buffer (Life Technologies). After a 30 minute incubation at room temperature, TR-FRET measurements were obtained on a BMG PHERAstar plate reader using LanthaScreen® filters and settings. A 16 point, 2-fold dilution series of each compound was tested in triplicate at each concentration and assays were also performed in triplicate.

[4] = test system: SH-SY5Y cells expressing LRRK2-GFP G2019S; assay: Cytotoxicity assay (resazurin-based cell viability); settings: read-out: Cytotoxicity Assay IC50; same conditions as TR-FRET follow-up; one representative of two experiments

Structure (SMILES)	%Inhibition Initial screen (LRRK2 G2019S [1]) [%]	Cellular TR-FRET Assay Max % Inhibition (LRRK2 G2019S [1]) [%]	IC50 (LRRK2 G2019S [1]) [µM]	IC50 [2] [µM]	effect on phosphorylation of Ser910, Ser935, Ser955 and Ser973 (IP-Western) (GFP-LRRK2 G2019S)	IC50 (LRRK2 G2019S [3]) [µM]	also measured
O=C(CCCN1CCC2(CC1)C(=O)N(Cc1cccc(F)c1)CN2c1ccccc1)c1ccc(F)cc1.O=C(O)/C=C\C(=O)O [3′-fluorobenzylspiperone maleate]	53						
CC(C)[C@H](CO)Nc1nc(Nc2cc(N)cc(Cl)c2)c2ncn(C(C)C)c2n1 [Aminopurvalanol A]	56.2	50	1.4	> 20			
O=C(NCCCNc1nc(Nc2cccc(NC(=O)N3CCCC3)c2)ncc1I)c1cccs1 [BX-795]					inhibited LRRK2 cellular phosphorylation		effect of desensitizing mutation A2016T/G2019S on compound-induced dephosphorylation (IP-Western) (LRRK2 A2016T/G2019S): rescued phosphorylation
CC(C)(C)c1ccc(S(=O)(=O)/C=C/C#N)cc1 [Bay 11-7085]	97.5	100	5.3	> 20	moderately reduced phosphorylation of all four residues	> 100	effect of desensitizing mutation A2016T/G2019S on compound-induced dephosphorylation (IP-Western) (LRRK2 A2016T/G2019S): did not appear to be changed; LRRK2 phosphorylation remaining, % of untreated G2019S (LRRK2 A2016T/G2019S; 293 cells, LRRK2 G2019S/A2016T): 50%; LRRK2 phosphorylation remaining, % of untreated G2019S (GFP-LRRK2 G2019S; 293 cells, LRRK2 G2019S): 50%; effect on LRRK2 activity in vitro (LRRK2 G2019S [3]): did not repress LRRK2 activity in vitro
Nc1nc(Nc2ccccc2)nc2c1ncn2[C@@H]1O[C@H](CO)[C@@H](O)[C@H]1O [CV1808]	55						
CN(C)CCCn1cc(C2=C(c3c[nH]c4ccccc34)C(=O)NC2=O)c2ccccc21 [GF109203X]							dephosphorylation of Ser935 in library screen (LRRK2 G2019S [1]): did not observe in vivo dephosphorylation of Ser935
O=C(c1ccc(Nc2nccc(-c3cc4ccccc4s3)n2)cc1)N1CCC(N2CCCC2)CC1 [IKK 16]	81.7	82	1.3	> 20	inhibited phosphorylation of Ser910, Ser935, Ser955 and Ser973	0.05	effect of desensitizing mutation A2016T/G2019S on compound-induced dephosphorylation (IP-Western) (LRRK2 A2016T/G2019S): rescued phosphorylation
CCc1ccc(OCc2ccccc2C(=O)Nc2ccc3nc(C)cc(N)c3c2)cc1 [JTC 801]	90.1	84	9.6	10	moderately reduced phosphorylation of all four residues	> 100	%Inhibition Initial screen (LRRK2 G2019S [1]; listed as JTC801, 20 µM): 90%; effect on LRRK2 activity in vitro (LRRK2 G2019S [3]): did not repress LRRK2 activity in vitro
O=C1C(Cl)=C(NCCN2CCOCC2)C(=O)c2ncccc21 [NSC 663284]	59.1	45	5.8	2		0.48	
Cn1cc(C2=C(c3cn(CCCSC(=N)N)c4ccccc34)C(=O)NC2=O)c2ccccc21 [Ro31-8220]							dephosphorylation of Ser935 in library screen (LRRK2 G2019S [1]): did not observe in vivo dephosphorylation of Ser935
[O-][S+](c1ccccc1)c1ccc2nnnn2n1 (stereo not drawn) [Ro 106-9920]	69.8	76	7.6	20		> 100	suppression of LRRK2 phosphorylation on Ser935 (GFP-LRRK2 G2019S; HEK293 cells): approximately 50%; effect on LRRK2 activity in vitro (LRRK2 G2019S [3]): did not repress LRRK2 activity in vitro
NC(=O)Nc1sc(-c2ccc(F)cc2)cc1C(N)=O [TPCA-1]	54.8	50	0.1				IC50 [4]: > 20 µM
C[C@@H](N)[C@H]1CC[C@H](C(=O)Nc2ccncc2)CC1 [Y-27632]	67.3	69		> 20			
